Drawing on US8592456B2 (4SC Discovery GmbH, priority 2011, dated 2013), this text covers IC50 for 29 molecules.

The subject of this assay is PBMC (T cell proliferation). The assay is described as follows: T cell proliferation assay, PHA-stimulated human PBMC (BrdU ELISA). Particulars: 48 hours, BrdU. Type of assay: cell-based. Here is the method:
Cell proliferation was analysed using the BrdU based cell proliferation ELISA from Roche (Mannheim, Germany) according to the manufacturer's instructions.
T Cell Proliferation Assay
Peripheral blood mononuclear cells (PBMC) from healthy human donors were isolated by centrifugation over Ficoll-Hypaque (Sigma-Aldrich, Germany) according to manufacturer's instructions. Purified PBMC were washed twice with PBS and resuspended in RPMI1640 culture medium supplemented with 10% dialyzed heat inactivated fetal calf serum, 1.5 mM L-glutamine, 100 U penicillin/ml, and […] (all from PAN Biotech, Aidenbach, Germany). For stimulation, PBMC were seeded at 1×10^5 cells/well, activated with 2 μg/ml phytohaemagglutinin (PHA, Sigma) and incubated with the test compound. After 48 hours proliferation was measured using the BrdU based cell proliferation ELISA from Roche (Mannheim, Germany) according to the manual.

[1] abbreviates: human PBMC, 2 μg/ml PHA, read-out: D: IC50 (Tcell proliferation).
Where [2] appears, read: PHA-stimulated human PBMC, column D, activity classes 1-4, read-out: IC50 (Tcell proliferation).

SMILES strings stand for the structures. Like-named read-outs stand apart in the source and are kept apart here. Bounds are passed on as bounds.

Consider `Nc1c(-c2c(F)cccc2Cl)noc1-c1cnn(-c2cccc(F)c2)c1C(F)(F)F` [Example 117, 3-(2-chloro-6-fluorophenyl)-5-(1-(3-fluorophenyl)-5-(trifluoromethyl)-1H-pyrazol-4-yl)isoxazol-4-amine], for which the IC50 under setting [1] was in the range of 0.1 to 1 µM.

Take `CCOC(=O)c1c(-c2c(Cl)cncc2Cl)noc1-c1cnn(-c2cccc(NC(C)=O)c2)c1C(F)(F)F` [Example B-11, ethyl 5-(1-(3-acetamidophenyl)-5-(trifluoromethyl)-1H-pyrazol-4-yl)-3-(3,5-dichloropyridin-4-yl)isoxazole-4-carboxylate]: the IC50 under setting [1] was 0.1 to 1 µM.

On to `CNC(=O)c1c(-c2c(F)cccc2Cl)noc1-c1cnn(-c2ccc(F)cc2)c1C(F)(F)F` [Example 55, 3-(2-chloro-6-fluorophenyl)-5-(1-(4-fluorophenyl)-5-(trifluoromethyl)-1H-pyrazol-4-yl)-N-methylisoxazole-4-carboxamide], for which, under setting [1], the IC50 lay within 0.1 to 1 µM.

As to `Fc1cccc(-n2ncc(-c3onc(-c4c(F)cccc4Cl)c3Br)c2C(F)(F)F)c1` [Example 137, 4-bromo-3-(2-chloro-6-fluorophenyl)-5-(1-(3-fluorophenyl)-5-(trifluoromethyl)-1H-pyrazol-4-yl)isoxazole], the IC50 under setting [1] fell in the range of 0.01 to 0.1 µM.

Turning to `COc1csc(-c2c(-c3c(F)cccc3Cl)noc2-c2cnn(-c3cccc(F)c3)c2C(F)(F)F)n1` [Example I-10, 3-(2-chloro-6-fluorophenyl)-5-(1-(3-fluorophenyl)-5-(trifluoromethyl)-1H-pyrazol-4-yl)-4-(4-methoxythiazol-2-yl)isoxazole], under setting [2], the IC50 was in the range of 0.01 to 0.1 µM.

On to `CON(C)C(=O)c1c(-c2c(F)cccc2Cl)noc1-c1cnn(-c2ccccc2Br)c1C(F)(F)F` [Example B-74, 5-(1-(2-bromophenyl)-5-(trifluoromethyl)-1H-pyrazol-4-yl)-3-(2-chloro-6-fluorophenyl)-N-methoxy-N-methylisoxazole-4-carboxamide], for which the IC50 under setting [1] was in the range of 1 to 10 µM.

Consider `CCOC(=O)c1c(-c2c(F)cccc2Cl)noc1-c1cnn(CC2CCOCC2)c1C(F)(F)F` [Example B-81, ethyl 3-(2-chloro-6-fluorophenyl)-5-(1-((tetrahydro-2H-pyran-4-yl)methyl)-5-(trifluoromethyl)-1H-pyrazol-4-yl)isoxazole-4-carboxylate], for which the IC50 under setting [1] fell in the range of 0.1 to 1 µM.

Take `COC(=O)c1c(-c2ccc(Cl)c(Cl)c2)noc1-c1cnn(-c2cccc(F)c2)c1C(F)(F)F` [Example 97, methyl 3-(3,4-dichlorophenyl)-5-(1-(3-fluorophenyl)-5-(trifluoromethyl)-1H-pyrazol-4-yl)isoxazole-4-carboxylate]: the IC50 under setting [1] was 1 to 10 µM.

For `Fc1cccc(Cl)c1-c1noc(-c2cnn(-c3ccncc3)c2C(F)(F)F)c1-c1ccoc1` [IB-24, 3-(2-chloro-6-fluorophenyl)-4-(furan-3-yl)-5-(1-(pyridin-4-yl)-5-(trifluoromethyl)-1H-pyrazol-4-yl)isoxazole], under setting [2], the IC50 was in the range of 0.01 to 0.1 µM.

With `COC(=O)c1c(-c2c(F)cccc2Cl)noc1-c1cnn(-c2nc(-c3ccc(F)cc3)cs2)c1C(F)(F)F` [Example 54, methyl 3-(2-chloro-6-fluorophenyl)-5-(1-(4-(4-fluorophenyl)thiazol-2-yl)-5-(trifluoromethyl)-1H-pyrazol-4-yl)isoxazole-4-carboxylate], the IC50 under setting [1] lay in the range of 1 to 10 µM.

`COC(=O)c1c(-c2c(F)cccc2Cl)noc1-c1cnn(-c2ccccc2F)c1` [Example 89, Methyl 3-(2-chloro-6-fluorophenyl)-5-[1-(2-fluorophenyl)-1H-pyrazol-4-yl]isoxazole-4-carboxylate]: under setting [1], the IC50 fell in the range of 0.1 to 1 µM.

For the molecule `NC(=S)c1c(-c2c(F)cccc2Cl)noc1-c1cnn(-c2ccccc2F)c1C(F)(F)F` [Example B-102, 3-(2-chloro-6-fluorophenyl)-5-(1-(2-fluorophenyl)-5-(trifluoromethyl)-1H-pyrazol-4-yl)isoxazole-4-carbothioamide], the IC50 under setting [1] is 0.1 to 1 µM.

With `COC(=O)c1c(-c2c(F)cccc2Cl)noc1-c1cnn(-c2cccc(F)c2)c1C(F)(F)C(F)F` [Example 64, methyl 3-(2-chloro-6-fluorophenyl)-5-(1-(3-fluorophenyl)-5-(1,1,2,2-tetrafluoroethyl)-1H-pyrazol-4-yl)isoxazole-4-carboxylate], the IC50 under setting [1] lay in the range of 1 to 10 µM.

Take `Fc1ccc(-n2ncc(-c3onc(-c4c(F)cccc4Cl)c3Br)c2C(F)(F)F)c(F)c1` [Example B-24, 4-bromo-3-(2-chloro-6-fluorophenyl)-5-(1-(2,4-difluorophenyl)-5-(trifluoromethyl)-1H-pyrazol-4-yl)isoxazole]: under setting [1], the IC50 lay within 1 to 10 µM.

On to `Fc1cccc(Cl)c1-c1noc(-c2cnn(-c3cccnc3)c2C(F)(F)F)c1-c1cnco1` [IB-32, 3-(2-chloro-6-fluorophenyl)-4-(oxazol-5-yl)-5-(1-(pyridin-3-yl)-5-(trifluoromethyl)-1H-pyrazol-4-yl)isoxazole], for which the IC50 under setting [2] fell in the range of 1 to 10 µM.

For the molecule `CC(C)OC(=O)c1c(-c2c(F)cccc2Cl)noc1-c1cnn(-c2ccccc2Cl)c1C(F)(F)F` [Example B-60], under setting [1], the IC50 was in the range of 1 to 10 µM.

For `O=C(c1c(-c2c(F)cccc2Cl)noc1-c1cnn(-c2cccc(F)c2)c1C(F)(F)F)N1CCOCC1` [Example 127, (3-(2-chloro-6-fluorophenyl)-5-(1-(3-fluorophenyl)-5-(trifluoromethyl)-1H-pyrazol-4-yl)isoxazol-4-yl)(morpholino)methanone], the IC50 under setting [1] was in the range of 1 to 10 µM.

On to `O=C(NCc1ccccc1C(F)(F)F)c1c(-c2c(F)cccc2Cl)noc1-c1cnn(-c2ccccc2F)c1C(F)(F)F` [Example 23, 3-(2-chloro-6-fluorophenyl)-5-(1-(2-fluorophenyl)-5-(trifluoromethyl)-1H-pyrazol-4-yl)-N-(2-(trifluoromethyl)benzyl)isoxazole-4-carboxamide], for which the IC50 under setting [1] lay within 1 to 10 µM.

Regarding `Fc1cccc(Cl)c1-c1noc(-c2cnn(-c3cccc(Cl)c3)c2C(F)(F)F)c1-c1nnn[nH]1` [Example I-3, 3-(2-chloro-6-fluorophenyl)-5-(1-(3-chlorophenyl)-5-(trifluoromethyl)-1H-pyrazol-4-yl)-4-(1H-tetrazol-5-yl)isoxazole], the IC50 under setting [2] lay in the range of 1 to 10 µM.

Turning to `CC(C)OC(=O)c1c(-c2c(F)cccc2Cl)noc1-c1cnn(-c2ccncc2)c1C(F)(F)F` [Example B-82, isopropyl 3-(2-chloro-6-fluorophenyl)-5-(1-(pyridin-4-yl)-5-(trifluoromethyl)-1H-pyrazol-4-yl)isoxazole-4-carboxylate], the IC50 under setting [1] lay in the range of 0.01 to 0.1 µM.

Turning to `O=C(c1c(-c2c(F)cccc2Cl)noc1-c1cnn(-c2cccc(F)c2)c1C(F)(F)F)N1CCCO1` [Example 118, (3-(2-chloro-6-fluorophenyl)-5-(1-(3-fluorophenyl)-5-(trifluoromethyl)-1H-pyrazol-4-yl)isoxazol-4-yl)(isoxazolidin-2-yl)methanone], under setting [1], the IC50 lay in the range of 0.01 to 0.1 µM.

For the molecule `Fc1cccc(Cl)c1-c1noc(-c2cnn(-c3ccncc3)c2C(F)(F)F)c1-c1cnco1` [IB-33, 3-(2-chloro-6-fluorophenyl)-4-(oxazol-5-yl)-5-(1-(pyridin-4-yl)-5-(trifluoromethyl)-1H-pyrazol-4-yl)isoxazole], the IC50 under setting [2] was 1 to 10 µM.

Take `COC(=O)c1c(-c2c(F)cccc2Cl)noc1-c1cnn(-c2ccccc2Cl)c1C(F)(F)F` [Example B-20, methyl 3-(2-chloro-6-fluorophenyl)-5-(1-(2-chlorophenyl)-5-(trifluoromethyl)-1H-pyrazol-4-yl)isoxazole-4-carboxylate]: the IC50 under setting [1] lay within 1 to 10 µM.

Regarding `COC(=O)c1c(-c2cccc(F)c2)noc1-c1cnn(-c2cccc(F)c2)c1C(F)(F)F` [Example 106, methyl 3-(3-fluorophenyl)-5-(1-(3-fluorophenyl)-5-(trifluoromethyl)-1H-pyrazol-4-yl)isoxazole-4-carboxylate], the IC50 under setting [1] lay in the range of 1 to 10 µM.

`CNC(=S)c1c(-c2c(F)cccc2Cl)noc1-c1cnn(-c2ccc(F)cc2)c1C(F)(F)F` [Example 76, 3-(2-chloro-6-fluorophenyl)-5-(1-(4-fluorophenyl)-5-(trifluoromethyl)-1H-pyrazol-4-yl)-N-methylisoxazole-4-carbothioamide]: the IC50 under setting [1] is 1 to 10 µM.

`COC(=O)c1c(-c2c(F)cccc2Cl)noc1-c1cnn(-c2cc(F)cc(F)c2)c1C(F)(F)F` [Example 50, methyl 3-(2-chloro-6-fluorophenyl)-5-(1-(3,5-difluorophenyl)-5-(trifluoromethyl)-1H-pyrazol-4-yl)isoxazole-4-carboxylate]: under setting [1], the IC50 was less than 0.01 µM.

As to `CCOC(=O)c1c(-c2onc(-c3c(F)cccc3Cl)c2C(=O)OC)cnn1-c1cc(F)cc(F)c1` [Example 39, methyl 3-(2-chloro-6-fluorophenyl)-5-(1-(3,5-difluorophenyl)-5-(ethoxycarbonyl)-1-H-pyrazol-4-yl)isoxazole-4-carboxylate], the IC50 under setting [1] was 1 to 10 µM.

Turning to `Fc1cccc(-n2ncc(-c3onc(-c4c(F)cccc4Cl)c3-c3nnn[nH]3)c2C(F)(F)F)c1` [Example I-2, 3-(2-chloro-6-fluorophenyl)-5-(1-(3-fluorophenyl)-5-(trifluoromethyl)-1H-pyrazol-4-yl)-4-(1H-tetrazol-5-yl)isoxazole], under setting [2], the IC50 lay within 1 to 10 µM.

With `CCOC(=O)c1c(-c2c(F)cccc2Cl)noc1-c1cnn(-c2cccnc2)c1C(F)(F)F` [Example B-37, ethyl 3-(2-chloro-6-fluorophenyl)-5-(1-(pyridin-3-yl)-5-(trifluoromethyl)-1H-pyrazol-4-yl)-isoxazole-4-carboxylate], the IC50 under setting [1] was less than 0.01 µM.
